Laboratory results taken from paper PMC4156305, “Structure Driven Design of Novel Human Ether-A-Go-Go-Related-Gene Channel (hERG1) Activators” (PLoS ONE, 2014).
“Also recorded” adds a separate entry of the source.

What was measured:
[1] = target: T1, hERG1 (Homo sapiens, UniProt Q12809); assay: Whole cell patch-clamp of hERG1 currents in transfected HEK 293 cells; format: cell-based; set-up: Inactivation ΔV0.3: unit not given here; settings: for Deactivation Δλ/λcon: deactivation time constant relative to baseline; for Activation V1/2 (mV): shift in voltage-dependence of activation; for Inactivation ΔV0.3: shift in voltage-dependence of inactivation; for Amplitude I/Icon: tail current relative to baseline
T1 construct: expressed in transfected cells; host or cells: HEK 293
Procedure: (§1) Transfected HEK cells on glass cover slips were placed in a chamber mounted on a modified stage of an inverted microscope. The chamber was superfused at a rate of 2 mL/min with a normal external solution. The extracellular solution contained (in mM) NaCl 140, KCl 5.4, CaCl2 1, MgCl2 1, HEPES 5, glucose 5.5, pH 7.4, with NaOH. Micropipettes were pulled from borosilicate glass capillary tubes on a programmable horizontal puller (Sutter Instruments, Novato, CA). Standard patch-clamp methods were used to measure the whole cell currents of hERG1 mutants expressed in HEK 293 cells using the AXOPATCH 200B amplifier (Axon Instruments). Unless otherwise indicated, tail currents were recorded when the voltage was returned to −50 mV from +50 mV. Further details on electrophysiological methods are collected in Methods S1.
(§2) Electrophysiology Protocol:
(§3) The pipette solution contained the following (at mM concentration): KCl 10, K-aspartate 110, MgCl2 5, Na2ATP 5, EGTA 10, HEPES 5, and CaCl2 1. The solution was adjusted to pH 7.2 with KOH. The extracellular solution contained the following (at mM concentration): NaCl 140, KCl 5.4, CaCl2 1, MgCl2 1, HEPES 5, and glucose 5.5. The solution was adjusted to pH 7.4 with NaOH. For IKr measurements, the whole cell configuration of the patch clamp method was used. The series resistance was less than 7
(§4) MΩ. The data were sampled at 1 kHz. The holding potential was -80 mV. The activation of hERG tail currents was induced by depolarization to a range of potentials from +50 to -100 mV in 10 mV steps for 1 second. This was followed by repolarization to -100 mV for 1 second to record the tail currents.
(§5) -100 mV, a -120 mV 1 second pre-pulse was applied to completely close the hERG channels before subsequent depolarization. All of the tail currents reported in this manuscript represent dofetilide-sensitive currents. The inactivation of hERG was measured by a previously reported triple-pulse protocol5, 6. The holding potential was -80 mV. The hERG channel was first depolarized to +50 mV for 1 second. Recovery from inactivation was achieved using a short pulse (a 10 ms hyperpolarization) to -120 mV, followed by the application of test pulses from -100 to 0 mV for 1 second in 10 mV steps.
(§6) A voltage of -100 mV was selected because it was on the flat part of the inactivation-voltage relationship. The methods employed are identical to ones previously reported. […]

[2] = target: T2, hERG1 E544L (Homo sapiens, UniProt Q12809, E544L); settings: ref [7]–[12]; cited from earlier work
T2 construct: expressed in transfected cells; host or cells: HEK 293

[3] = target: T1, hERG1; settings: cited from earlier work
[4] = target: T2, hERG1 E544L; assay: Whole cell patch-clamp of hERG1 E544L mutant; format: cell-based; settings: 10 µM
Procedure: as §1, §2, §3, §4, §5, §6

[5] = tested on: fetal mouse ventricular myocytes; assay: Action potential recordings in neonatal (day 1) / fetal mouse ventricular myocytes; format: cell-based; settings: 20 µM
Procedure: Action potentials were recorded from neonatal (day 1) mouse ventricular myocytes as previously reported. Although IKr has little physiologic importance to the action potential of the adult rodent heart, we previously reported that IKr is the dominant repolarizing current in day 1 neonatal myocytes, with little or no IKs. Thus, these neonatal cells are well suited to assess the physiologic relevance of blockade of IKr to the action potential characteristics. In contrast, to address the possibility that compounds inadvertently interact with other channels, action potentials were recorded from adult cardiac myocytes. Myocytes on glass coverslips were placed in a chamber mounted on a modified stage of an inverted microscope.

[6] = Conc. 2 µM, listed as MC-II-159c
[7] = Conc. 10 µM, listed as MC-I-153b
[8] = Conc. 50 µM, listed as MC-I-153b
[9] = Conc. 50 µM, listed as MC-I-159b

SMILES | Deactivation Δλ/λcon ([1]; Conc. 10 µM) | Activation V1/2 (mV) ([1]; Conc. 10 µM) | Inactivation ΔV0.3 ([1]; Conc. 10 µM) | Amplitude I/Icon ([1]; Conc. 10 µM) | Deactivation Δλ/λcon ([1]; Conc. 50 µM) | Activation V1/2 (mV) ([1]; Conc. 50 µM) | Inactivation ΔV0.3 ([1]; Conc. 50 µM) | Amplitude I/Icon ([1]; Conc. 50 µM) | Deactivation Δλ/λcon ([1]; Conc. 20 µM) | Activation V1/2 (mV) ([1]; Conc. 20 µM) | Inactivation ΔV0.3 ([1]; Conc. 20 µM) | Amplitude I/Icon ([1]; Conc. 20 µM) | further results
O=C(Nc1cc(C(F)(F)F)ccc1O)Nc1cc(C(F)(F)F)ccc1O [NS1643] | 1±0.4 | −21±2.3 | +6±0.6 | 1±0.04 |  |  |  |  |  |  |  |  | safety factor ([1]; original safety factor, blockade versus activation): 3 fold; NS1643-induced increase in tail current amplitude [2]: 398%; NS1643-induced shift in the V1/2 of activation [2]: −24±3 mV; NS1643-induced slowing of deactivation [2]: 3.5 fold; NS1643-induced increase in tail current amplitude ([3]; WT, ref [7]–[12]): 13%; NS1643-induced slowing of deactivation ([3]; WT, ref [7]–[12]): 1.9 fold; concentration increasing current density / tail current magnitude ([3]; ref [7]): 10 µM; concentration producing channel blockade ([3]; ref [7]): 30 µM; concentration that increases the magnitude of the tail current ([3]; ref [13]): 10 µM; concentrations that pharmacologically block the channel ([3]; ref [13]): 20–30 µM; NS1643-induced shift in the V1/2 of activation ([3]; wild type (WT), ref [7]–[12]): −18±3 mV; pharmacologic responses (shift in voltage-dependence of activation, slowing of deactivation) in E544L versus WT [4]: exaggerated pharmacologic responses; also recorded: exaggerated response; response in amplitude of the tail current in E544L versus WT [4]: exaggerated
COCOc1ccc(C(F)(F)F)cc1NC(=O)NC(=O)[C@H](C)NS(=O)(=O)c1ccc([N+](=O)[O-])cc1 [Compound 15] | −0.1±0.1 | −3±3 | −11±2 | 0.7±0.12 |  |  |  |  |  |  |  |  | Deactivation Δλ/λcon ([1]; Conc. 30 µM): −0.01±0.07; Activation V1/2 (mV) ([1]; Conc. 30 µM): 0±0 mV; Inactivation ΔV0.3 ([1]; Conc. 30 µM): −10±0; Amplitude I/Icon ([1]; Conc. 30 µM): 0.5±0.04
COCOc1ccc(C(F)(F)F)cc1NC(=O)NC(=O)[C@H](C)N(Cc1ccccc1)Cc1ccccc1 [Compound 17] | 0.07±0.08 | −5±0.6 | −1±0.6 |  | 0.25±0.18 | −2±0 | +4±0 | 0.95±0.03 |  |  |  |  | 
C[C@H](NCc1ccc(Br)cc1)C(=O)NC(=O)Nc1cc(C(F)(F)F)ccc1O [Compound 4] |  |  | shifts voltage dependence to hyperpolarized potentials |  |  |  |  |  | 3.1±1.6 | −33±14 | −4.5±1.5 | 0.6±0.07 | lower drug concentration at which effects on deactivation were still manifest [1]: ~2 µM; Deactivation Δλ/λcon ([1]; Conc. 2 µM): 0.25±0.02; Deactivation Δλ/λcon [1, 6]: significantly prolonged deactivation; Activation V1/2 (mV) ([1]; Conc. 2 µM): −5±2 mV; Inactivation ΔV0.3 ([1]; Conc. 2 µM): −0.5±0.5; Amplitude I/Icon ([1]; Conc. 2 µM): 0.76±0.14; Amplitude I/Icon [1, 6]: 0.76; Amplitude I/Icon ([1]; Conc. 20 µM, listed as MC-II-159c): 0.6; upstroke of the action potential, overshoot potential and excitability threshold [5]: affected the upstroke of the action potential, the overshoot potential and the excitability threshold; response in amplitude of the tail current in E544L versus WT [4]: markedly diminished; pharmacologic responses (shift in voltage-dependence of activation, slowing of deactivation) in E544L versus WT ([4]; listed as MC-II-159c): significantly and substantially less pharmacologic responses; also recorded: significantly and substantially reduced
C[C@H](NC(=O)c1ccccc1)C(=O)NC(=O)Nc1cc(C(F)(F)F)ccc1O [Compound 6] |  |  |  |  |  |  |  |  | 0.8±0.1 | −3.7±0.7 | −2.5±1.5 | 0.7±0.02 | 
COCOc1ccc(C(F)(F)F)cc1NC(=O)NC(=O)[C@H](C)NC(=O)c1ccccc1 [Compound 11] |  |  |  |  |  |  |  |  | −0.1±0.2 | −12.7±2.7 | −1.5±1.5 | 0.6±0.04 | 
COCOc1ccc(C(F)(F)F)cc1NC(=O)NC(=O)[C@H](C)N [Compound 16] | −0.07±0.1 | −7±2 |  | 0.6±0.06 | 0.003±0.14 | −19±3 | −27±2 | 0.3±0.02 |  |  |  |  | Activation V1/2 (mV) [1, 7]: shifts V1/2 of activation to hyperpolarized potentials; Amplitude I/Icon [1, 7]: 0.6; Activation V1/2 (mV) [1, 8]: left shifted the V1/2 of activation; Amplitude I/Icon [1, 8]: 0.3
COCOc1ccc(C(F)(F)F)cc1NC(=O)NC(=O)[C@H](C)NCc1ccc(F)cc1 [Compound 8] |  |  |  |  |  |  |  |  | −0.1±0.04 | −12.5±2.5 | −4±8 | 0.1±0.0 | 
C[C@H](NS(=O)(=O)c1ccc(N)cc1)C(=O)NC(=O)Nc1cc(C(F)(F)F)ccc1O [Compound 13] |  |  |  |  | 0.5±0.1 | −2.5±3.0 | +10±0.6 | 1±0.03 | 0.3±0.1 | −5±3 | +8±0.4 | 1.0 | pharmacologic activity ([1]; 1 µM): no pharmacologic activity; Activation V1/2 (mV) ([1]; Conc. 2 µM): −2±3 mV; Amplitude I/Icon ([1]; Conc. 2 µM): 1.0; Inactivation ΔV0.3 ([1]; Conc. 20 µM, listed as MC-I-159b): significantly shifted voltage-dependence of inactivation to depolarized potentials; Inactivation ΔV0.3 [1, 9]: shifted the voltage-dependence of inactivation to depolarized potentials; Amplitude I/Icon [1, 9]: did not produce pharmacological block
